{"source": "patent EP0624593A2", "about": "“Bile acid derivates, a method for their production and their use as medicines” (HOECHST AKTIENGESELLSCHAFT, priority 1993, dated 1994)", "target": "T1, Na⁺-abhängiges Gallensäuretransportsystem (Bürstensaummembranvesikel des Ileums) (Oryctolagus cuniculus, UniProt Q28727)", "T1 construct": "Präparation von Bürstensaummembranvesikeln aus dem Ileum von Kaninchen; from tissue; host or cells: Brush border membrane vesicles from the terminal ileum of male New Zealand rabbits (Mg2+ precipitation method)", "T1 sequence (Q28727 1-347)": "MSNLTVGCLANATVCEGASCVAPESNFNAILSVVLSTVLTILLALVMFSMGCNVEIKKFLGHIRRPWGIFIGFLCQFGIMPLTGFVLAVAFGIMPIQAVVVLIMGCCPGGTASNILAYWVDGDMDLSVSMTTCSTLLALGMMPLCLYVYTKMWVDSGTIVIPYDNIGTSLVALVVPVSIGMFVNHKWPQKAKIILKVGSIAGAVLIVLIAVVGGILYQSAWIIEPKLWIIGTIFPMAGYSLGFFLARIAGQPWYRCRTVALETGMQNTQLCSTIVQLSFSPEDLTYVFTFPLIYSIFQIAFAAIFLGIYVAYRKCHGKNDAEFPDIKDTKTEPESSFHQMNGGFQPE", "test": "Inhibition of [³H]-taurocholate uptake into brush border membrane vesicles of rabbit ileum (membrane filtration technique)", "type": "biochemical, Kaninchen", "conditions": "50 µM Taurocholat; for IC50Na-TCDC[µmol] / IC50Na-Substanz[µmol]: quotient of IC50Na of reference Taurochenodesoxycholat (TCDC) and IC50Na of test substance, Na⁺-dependent transport part (difference Na-T-P minus K-T-P); for IC50-TCDC[µmol] / IC50-Substanz[µmol]: quotient of IC50 of reference Taurochenodesoxycholat (TCDC) and IC50 of test substance, [³H]-Taurocholat uptake, usually 1 min incubation", "text": "Die biologische Prüfung der erfindungsgemäßen Verbindungen erfolgte durch Ermittlung der Hemmung der [³H]-Taurocholataufnahme in Bürstensaummembranvesikel des Ileums von Kaninchen. Der Hemmtest wurde wie folgt durchgeführt:\n1. Präparation von Bürstensaummembranvesikeln aus dem Ileum von Kaninchen\nDie Präparation von Bürstensaummembranvisikeln aus den Darmzellen des Dünndarm erfolgte mit der sogenannten Mg²⁺-Präzipitationsmethode. Männliche Neuseeland-Kaninchen (2 bis 2,5 kg Körpergewicht) wurden durch intravenöse Injektion von 0,5 ml einer wäßrigen Lösung von 2,5 mg Tetracain HCl, 100 T 61^R und 25 mg Mebezoniumjodid getötet. Der Dünndarm wurde entnommen und mit eiskalter physiologischer Kochsalzlösung gespült. Die terminalen 7/10 des Dünndarms (gemessen in oral rectaler Richtung, d. h. das terminale Ileum, welches das aktive Na⁺-abhängige Gallensäuretransportsystem enthält) wurden zur Präparation der Bürstensaummembranvesikel verwendet. Die Därme wurden in Kunststoffbeuteln unter Stickstoff bei -80°C eingefroren. Zur Präparation der Membranvesikel wurden die eingefrorenen Därme bei 30°C im Wasserbad aufgetaut. Die Mucosa wurde abgeschabt und in 60 ml eiskaltem 12 mM Tris/HCl-Puffer (pH 7,1)/300 mM Mannit, 5 mM EGTA/10 mg/l Phenylmethylsulfonylfluorid/1 mg/l Trypsin Inhibitor v. Sojabohnen (32 U/mg)/0,5 mg/l Trypsin Inhibitor v. Rinderlunge (193 U/mg)15 mg/l Bacitracin suspendiert. Nach dem Verdünnen auf 300 ml mit eiskaltem destilliertem Wasser wurde mit einem Ultraturrax (18-Stab, IKA Werk Staufen, BRD) 3 Minuten bei 75 % max. Leistung unter Eiskühlung homogenisiert. Nach Zugabe von 3 ml 1 M MgCl₂-Lösung (Endkonzentration 10 mM) ließ man exakt 1 Minute bei 0°C stehen. Durch Zugabe von Mg²⁺ aggregieren die Zellmembranen und präzipitieren mit Ausnahme der Bürstensaummembranen. Nach einer 15-minütigen Zentrifugation bei 3000 x g (5000 rpm, SS-34-Rotor) wurde der Niederschlag verworfen und der Überstand, der die Bürstensaummembranen enthält, 30 Minuten bei […] (15000 rpm, SS-34-Rotor) zentrifugiert. Der Überstand wurde verworfen, der Niederschlag in 60 ml 12 mM Tris/HCl-Puffer (pH 7,1)/60 mM Mannit, 5 mM EGTA mit einem Potter Elvejhem Homogenisator (Braun, Melsungen, 900 rpm, 10 Hübe) rehomogenisiert. Nach Zugabe von 0,1 ml 1 M MgCl₂-Lösung und 15-minütiger Inkubationszeit bei 0°C wurde erneut 15 Minuten bei 3000 x g zentrifugiert. Der Überstand wurde anschließend nochmals 30 Minuten bei 46000 x g (15000 rpm, SS-34-Rotor) zentrifugiert. Der Niederschlag wurde in 30 ml 10 mM Tris/Hepes-Puffer (pH 7,4)/300 mM Mannit aufgenommen und durch 20 Hübe in einem Potter Elvejhem Homogenisator bei 1000 rpm homogen resuspendiert. Nach 30 minütiger Zentrifugation bei 48000 x g (20000 rpm, SS-34-Rotor) wurde der Niederschlag in 0,5 bis 2 ml Tris/Hepes-Puffer (pH 7,4)/280 mM Mannit (Endkonzentration 20 mg/ml) aufgenommen und mit Hilfe einer Tuberkulinspritze mit einer 27 Gauge-Nadel resuspendiert. Die Vesikel wurden entweder unmittelbar nach der Präparation für Transportuntersuchungen verwendet oder bei -196°C in 4 mg Portionen in flüssigem Stickstoff aufbewahrt.\n2. Hemmung der Na⁺-abhängigen [³H]Taurocholat-Aufnahme in Bürstensaummembranvesikel des Ileums\nDie Aufnahme von Substraten in die vorstehend beschriebenen Bürstensaummembranvesikel wurde mittels der sogenannten Membranfiltrationstechnik bestimmt. 10 µl der Vesikelsuspension (100 µg Protein) wurden als Tropfen an die Wand eines Polystyrolinkubationsröhrchens (11 x 70 mm) pipettiert, welches das Inkubationsmedium mit den entsprechenden Liganden enthielt (90 µl). Das Inkubationsmedium enthielt 0,75 µl = 0,75 µCi [³H(G)]-Taurocholat (spezifische Aktivität: 2,1 Ci/mMol) /0,5 µl 10 mM Taurocholat/8,75 µl Natrium-Transport-Puffer (10 mM Tris/Hepes, (pH 7,4)/100 mM Mannit/100 mM NaCl) (Na-T-P) bzw. 8,75 µl Kalium-Transport-Puffer (10 mM Tris/Hepes (pH 7,4)/100 mM Mannit/100 mM KCl) (K-T-P) und 80 µl der betreffenden Inhibitorlösung, je nach Experiment in Na-T-Puffer bzw. K-T-Puffer gelöst. […]"}
{"smiles": "COC(=O)CC[C@@H](C)[C@H]1CC[C@H]2[C@@H]3[C@H](OCCNC(=O)CCC(=O)NCCCNC(=O)CC[C@@H](C)[C@H]4CC[C@H]5[C@@H]6[C@H](O)C[C@@H]7C[C@H](OC(c8ccccc8)c8ccccc8)CC[C@]7(C)[C@H]6C[C@H](O)[C@]45C)C[C@@H]4C[C@H](OC(C)=O)CC[C@]4(C)[C@H]3C[C@H](O)[C@]12C", "note": "[Beispiel 20]", "values": [{"measurement": "IC50Na-TCDC[µmol] / IC50Na-Substanz[µmol]", "result": "0,12"}]}
{"smiles": "C[C@H](CCC(=O)N[C@H]1C[C@@H]2C[C@H](O)CC[C@]2(C)[C@H]2C[C@H](O)[C@]3(C)[C@@H]([C@H](C)CCC(=O)O)CC[C@H]3[C@H]12)[C@H]1CC[C@H]2[C@@H]3[C@H](O)C[C@@H]4C[C@H](O)CC[C@]4(C)[C@H]3C[C@H](O)[C@]12C", "note": "[Beispiel 26]", "values": [{"measurement": "IC50Na-TCDC[µmol] / IC50Na-Substanz[µmol]", "result": "0,29"}]}
{"smiles": "C[C@H](CCC(=O)N[C@H]1C[C@@H]2C[C@H](O)CC[C@]2(C)[C@H]2C[C@H](O)[C@]3(C)[C@@H]([C@H](C)CCC(=O)O)CC[C@H]3[C@H]12)[C@H]1CC[C@H]2[C@@H]3[C@H](O)C[C@@H]4C[C@H](O)CC[C@]4(C)[C@H]3CC[C@]12C", "note": "[Beispiel 27]", "values": [{"measurement": "IC50Na-TCDC[µmol] / IC50Na-Substanz[µmol]", "result": "0,44"}, {"measurement": "IC50-TCDC[µmol] / IC50-Substanz[µmol]", "result": "0,64"}]}
{"smiles": "C[C@H](CCC(=O)N[C@H]1C[C@@H]2C[C@H](O)CC[C@]2(C)[C@H]2C[C@H](O)[C@]3(C)[C@@H]([C@H](C)CCC(=O)O)CC[C@H]3[C@H]12)[C@H]1CC[C@H]2[C@@H]3[C@@H](O)C[C@@H]4C[C@H](O)CC[C@]4(C)[C@H]3CC[C@]12C", "note": "[Beispiel 28]", "values": [{"measurement": "IC50Na-TCDC[µmol] / IC50Na-Substanz[µmol]", "result": "0,43"}, {"measurement": "IC50-TCDC[µmol] / IC50-Substanz[µmol]", "result": "0,54"}]}
{"smiles": "C[C@H](CCC(=O)N[C@H]1C[C@@H]2C[C@H](O)CC[C@]2(C)[C@H]2C[C@H](O)[C@]3(C)[C@@H]([C@H](C)CCC(=O)O)CC[C@H]3[C@H]12)[C@H]1CC[C@H]2[C@@H]3CC[C@@H]4C[C@H](O)CC[C@]4(C)[C@H]3CC[C@]12C", "note": "[Beispiel 29]", "values": [{"measurement": "IC50Na-TCDC[µmol] / IC50Na-Substanz[µmol]", "result": "0,17"}, {"measurement": "IC50-TCDC[µmol] / IC50-Substanz[µmol]", "result": "0,23"}]}
{"smiles": "C[C@H](CCC(=O)NCCO[C@@H]1C[C@@H]2C[C@H](O)CC[C@]2(C)[C@H]2C[C@H](O)[C@]3(C)[C@@H]([C@H](C)CCC(=O)O)CC[C@H]3[C@H]12)[C@H]1CC[C@H]2[C@@H]3[C@H](O)C[C@@H]4C[C@H](O)CC[C@]4(C)[C@H]3C[C@H](O)[C@]12C", "note": "[Beispiel 30]", "values": [{"measurement": "IC50Na-TCDC[µmol] / IC50Na-Substanz[µmol]", "result": "0,85"}, {"measurement": "IC50-TCDC[µmol] / IC50-Substanz[µmol]", "result": "0,93"}]}
{"smiles": "C[C@H](CCC(=O)NCCCNC(=O)CCC(=O)NCCO[C@@H]1C[C@@H]2C[C@H](O)CC[C@]2(C)[C@H]2C[C@H](O)[C@]3(C)[C@@H]([C@H](C)CCC(=O)O)CC[C@H]3[C@H]12)[C@H]1CC[C@H]2[C@@H]3[C@H](O)C[C@@H]4C[C@H](O)CC[C@]4(C)[C@H]3C[C@H](O)[C@]12C", "note": "[Beispiel 32]", "values": [{"measurement": "IC50Na-TCDC[µmol] / IC50Na-Substanz[µmol]", "result": "0,80"}, {"measurement": "IC50-TCDC[µmol] / IC50-Substanz[µmol]", "result": "1,00"}]}
{"smiles": "C[C@H](CCC(=O)N[C@H]1C[C@@H]2C[C@H](O)CC[C@]2(C)[C@H]2C[C@H](O)[C@]3(C)[C@@H]([C@H](C)CCC(=O)NCCS(=O)(=O)O)CC[C@H]3[C@H]12)[C@H]1CC[C@H]2[C@@H]3[C@H](O)C[C@@H]4C[C@H](O)CC[C@]4(C)[C@H]3C[C@H](O)[C@]12C", "note": "[Beispiel 39]", "values": [{"measurement": "IC50Na-TCDC[µmol] / IC50Na-Substanz[µmol]", "result": "1,05"}, {"measurement": "IC50-TCDC[µmol] / IC50-Substanz[µmol]", "result": "0,92"}]}
{"smiles": "C[C@H](CCC(=O)N[C@H]1C[C@@H]2C[C@H](O)CC[C@]2(C)[C@H]2C[C@H](O)[C@]3(C)[C@@H]([C@H](C)CCC(=O)NCCS(=O)(=O)O)CC[C@H]3[C@H]12)[C@H]1CC[C@H]2[C@@H]3[C@H](O)C[C@@H]4C[C@H](O)CC[C@]4(C)[C@H]3CC[C@]12C", "note": "[Beispiel 40]", "values": [{"measurement": "IC50Na-TCDC[µmol] / IC50Na-Substanz[µmol]", "result": "0,52"}, {"measurement": "IC50-TCDC[µmol] / IC50-Substanz[µmol]", "result": "0,54"}]}
{"smiles": "C[C@H](CCC(=O)NCCO[C@@H]1C[C@@H]2C[C@H](O)CC[C@]2(C)[C@H]2C[C@H](O)[C@]3(C)[C@@H]([C@H](C)CCC(=O)NCCS(=O)(=O)O)CC[C@H]3[C@H]12)[C@H]1CC[C@H]2[C@@H]3[C@H](O)C[C@@H]4C[C@H](O)CC[C@]4(C)[C@H]3C[C@H](O)[C@]12C", "note": "[Beispiel 43]", "values": [{"measurement": "IC50Na-TCDC[µmol] / IC50Na-Substanz[µmol]", "result": "0,96"}, {"measurement": "IC50-TCDC[µmol] / IC50-Substanz[µmol]", "result": "1,18"}]}
